{"source": "patent US20130053323A1", "about": "“METHODS AND USE RELATED TO HUMANIN AND HUMANIN-LIKE PEPTIDES” (priority 2009, published 2013)", "key": {"[1]": {"test_system": "fetal rat metatarsal bones", "experiment": "Longitudinal growth of cultured fetal rat metatarsal bones", "assay_type": "cell-based", "method": "The three middle metatarsal bone rudiments were dissected out from the paws of 20-day-old embryos (E20) (De Luca, Barnes et al. 2001). After dissection, bones were transferred to 24-well plates, one bone per well and cultured in 0.5 ml phenol-red MEM medium supplemented with 0.2% endotoxin-free fraction BSA, […] β-glycerophosphate, 0.05 mg/ml ascorbic acid and 100 μg/ml penicillin/streptomycin at 37° C. under 5% CO2 in humidified atmosphere. Medium was changed every 2-3 days. Images were captured at days 0, 2, 5, 7, 9 and 12 of culture, using a Hamamatsu C4742-95 digital camera mounted on a Nikon SMZ-U microscope. The Image-Pro plus™ (Media Cybernetics, USA) software was used to measure longitudinal growth. Metatarsal bone growth is expressed as a percentage of the length at the day of dissection (regarded as day 0). Treatment with CT (bortezomib), dexamethasone and/or HNG (S14G) was started 2-4 hours after dissection. All isolated bones were pooled and then randomly divided into the different treatment groups (4 to 6 bones per group). Each experiment was repeated at least 3 times.\nThe data shown in FIG. 2A indicates novel growth promoting/protective effects of humanin analog HNG (S14G) on longitudinal bone growth in cultured fetal rat metatarsal bones. […] Briefly, fetal rat metatarsal bones were pre-treated with different concentrations (mentioned in the figure) of HNG (S14G), 30 min prior to addition of Dexa. […] (n=4-6 bones/group)\nCT (bortezomib) is a cytotoxic drug known to cause critical alterations in cells/tissues and disturb the cellular homeostasis. To test the effect of CT (bortezomib) on chondocytes and longitudinal bone growth, the established in vitro model of fetal rat metatarsal bones was used. These bones were collected as described in material and methods, cultured and treated with different concentrations of CT (bortezomib) under sterile conditions for up to 12 days. […] Apoptosis was analyzed in whole growth plate sections of 12-day cultured rat metatarsal bones (perichondrium excluded) by applying the TUNEL technique to detect DNA fragmentation.\nIn an attempt to block and prevent the negative effects on growth after CT (bortezomib)-treatment, recently discovered humanin analog HNG (S14G) was tested in vitro in fetal rat metatarsal bones."}, "FVB mice": {"test_system": "FVB mice", "experiment": "Dexa-induced growth retardation in FVB mice (tibia length, nose to anus length)", "assay_type": "in vivo", "settings": "HNG 1 μg/mice/day i.p. prior to Dexa 20 μg/mice/day; for rescue from Dexa-induced growth retardation (nose to anus length): 4 weeks", "method": "Four weeks old female mice FVB strain were obtained from Charles-River, Germany. The mice were kept in animal facility under a 12-h light, 12-h dark schedule with water ad libitum. After an adaptation period, mice were injected with Dexa dissolved in saline (20 μg/mice) subcutaneously in the neck every day for 1 week (short-term). Whereas, HNG (S14G) dissolved in saline (1 μg/mice) was injected intraperitoneally, 45 minutes prior to Dexa injection. The vehicle group received saline only. After one week of treatment/injections, animals were sacrificed and the back legs (femur and tibia) were collected. The skin and muscle from the tibia was removed and final length of tibia was measured by using electronic digital caliper as reported previously (Zaman, Menendez-Benito et al. 2007).\nIn another study, four weeks old female mice FVB strain (Charles-river, Germany) were injected with Dexa dissolved in saline (20 μg/mice) subcutaneously in the neck every day for four week (long-term). Whereas, HNG (S14G) dissolved in saline (1 μg/mice) was injected intraperitoneally, 45 minutes prior to Dexa injection. The vehicle group received saline only. The total body length (nose to anus) was measured (centimeters, cm) manually (blinded, the cadges were coded on the day of measurment), every week. After 4 weeks of treatment, animals were sacrificed by inhalation of CO2, tissue samples (both left and right leg) were collected for subsequent analysis.\nHNG injections were given […] prior to Dexa injections. […] After this, we next asked whether HNG (S14G) has any protective effects on bone growth after long-term treatment with Dexa (FIG. 3A). To investigate this, we treated mice for 4 weeks (group 2) with Dexa (20 μg/mice/day) and HNG (1 μg/mice/day). […] In FIG. 3B, total growth of the animals, nose to anus length (cm, manually) was analyzed in vehicle, Dexa, HNG (S14G) and Dexa/HNG (S14G) treated animals after four weeks of injections. **p<0.01 by 1-way ANOVA analyses, n=9-10/animals/group)."}, "IL-6": {"test_system": "IL-6", "experiment": "IL-6 ELISA in culture medium of LPS-treated ATDC5 chondrocytes", "assay_type": "cell-based, mice", "settings": "LPS 10 μg/ml 24 hrs; combined Dexa and HNG (10 nM)", "method": "Mice chondrocyte cell line ATDC5 (1×10^6), was cultured in DMEM/Ham's F12 (Invitrogen) supplemented with 5% FCS, 10 μg/ml human transferrin and 3×10^−8 M (30 nM) sodium selenite until confluent (day 6), as previously reported (Owen, Miner et al. 2007). Thereafter, differentiation was induced by the addition of insulin (10 μg/ml; Sigma) and ascorbic acid (20 μg/ml) to the maintenance medium (differentiation medium). Incubation was at 37° C. in a humidified atmosphere of 95% air/5% CO2. The culture medium was changed every second day. On day 6, lipopolysacharide (LPS) 10 μg/ml […] Dexa (1 μM) and HNG (10 nM, S14G) were added in DMEM/Ham's F12 only and cells were incubated further 24 hrs. Next day, the cell culture medium was collected and analyzed for Intraleukin-6 (IL-6) cytokine levels by using commercially available ELISA kit (R&D Systems, Minneapolis, Minn.) according to instructions provided from manufacturer.\nFIG. 2C. […] Therefore, ATDC5 chondrocytes (mice) were cultured and treated with lipopolysacharide (LPS, 10 μg/ml) for 24 hrs to induce inflammation."}, "[2]": {"test_system": "neuroblastoma (SK-N-BE(2)) xenograft", "experiment": "Tumor volume in neuroblastoma xenograft in NMRI nude mice", "assay_type": "in vivo, human", "settings": "bortezomib + HNG i.p., until day 13"}, "[3]": {"test_system": "neuroblastoma (SK-N-BE(2)) tumor xenografts", "experiment": "Doubling time of tumors in neuroblastoma xenografts", "assay_type": "in vivo, human", "settings": "combination bortezomib 0.8 mg/kg i.v. + HNG 1 μg/mouse/injection i.p.; p<0.05 vs vehicle"}, "[4]": {"test_system": "apoptosis inducing factor (AIF) and BAX", "experiment": "Western immunoblotting of pro-apoptotic proteins in C5.18 chondrocytic cell line", "assay_type": "cell-based, rat", "settings": "100 nM HNG/1000 nM bortezomib, 6hrs", "method": "Western immunoblotting to study protein expression was performed in the rat C5.18 chondrocytic cell line after treatment with 1000 nM CT (bortezomib) or 100 nM humanin analog HNG (S14G)/1000 nM CT (bortezomib (Btz)) for 6hrs. […] By adding humanin analog HNG (S14G), the up-regulation and activation of the two pro-apoptotic proteins were suppressed. […] As an internal control the house-keeping gene, GAPDH (35 kDa) was used. The experiment was repeated twice."}}, "note": "Entries after “also recorded” stand apart in the source; their conditions may differ.", "data": [{"substance": "S14G-HN (MAPRGFSCLLLLTGEIDLPVKRRA) [HNG (S14G)]", "values": [{"measurement": "bone growth by itself", "setting": "[1]; HNG alone, 100 nM, day 12, vs control", "value": "improved bone growth by itself; also recorded: trend to promote bone growth on its own"}, {"measurement": "rescue of the growth of bones", "setting": "[1]; HNG in combination with 25 nM bortezomib, p<0.001", "value": "up to 50%"}, {"measurement": "rescue of growth impairment", "setting": "[1]; HNG with bortezomib 50 nM and above", "value": "not able to rescue the growth impairment"}, {"measurement": "rescue from Dexa-induced growth retardation", "setting": "[1]; different doses of HNG added 30 min prior to Dexa 1 μM", "value": "significantly rescued the bones from Dexa-induced growth retardation"}, {"measurement": "rescue from Dexa-induced growth retardation (tibia length)", "setting": "FVB mice; 1 week", "value": "protected mice from Dexa-induced growth retardation; also recorded: rescued mice from Dexa-induced growth retardation"}, {"measurement": "rescue from Dexa-induced growth retardation (nose to anus length)", "setting": "FVB mice", "value": "completely rescued mice from Dexa-induced growth retardation"}, {"measurement": "rescue from Dexa-induced growth retardation (nose to anus length)", "setting": "FVB mice; listed as HNG (314G)", "value": "protected mice from Dexa-induced growth retardation"}, {"measurement": "effect on the anti-inflammatory effect of Dexa (IL-6 levels)", "setting": "IL-6", "value": "did not alter the anti-inflammatory effects of Dexa"}, {"measurement": "interference with anti-cancer effect of bortezomib (tumor volume)", "setting": "[2]", "value": "does not interfere with the anti-cancer effect"}, {"measurement": "tumor doubling time", "setting": "[3]", "value": "significant reduction in tumor doubling time"}, {"measurement": "bortezomib-induced up-regulation and activation of AIF and BAX", "setting": "[4]", "value": "suppressed"}]}]}
